Legend:
Format in all cases: in vivo
[1] = tested on: mustard beetle larvae (Phaedon cochleariae); assay: Phaedon cochleariae spray test (Chinese cabbage leaf disks); conditions: mortality after 6 d
Source text: (§1) The expected activity for a given combination of two active compounds can be calculated according to S. R. Colby, Weeds 15 (1967), 20-22 as follows:
(§2) • X is the kill rate, expressed in % of the untreated control, when active compound A is applied at an application rate of m g/ha or at a concentration of m ppm, • Y is the kill rate, expressed in % of the untreated control, when active compound B is applied at an application rate of n g/ha or at a concentration of n ppm and • E is the kill rate, expressed in % of the untreated control, when active compounds A and B is applied at application rates of m and n g/ha or at a concentration of m and n ppm, then
(§3) If the observed insecticidal efficacy of the combination is higher than the one calculated as “E”, then the combination of the two compounds is more than additive, i.e., there is a synergistic effect.
Solvent: 78.0 parts by weight of acetone • • 1.5 parts by weight of dimethylformamide Emulsifier: alkylarylpolyglycol ether
(§4) To produce a suitable preparation of active compound, 1 part by weight of active compound is mixed with the stated amount of solvents and is diluted with water, containing an emulsifier concentration of 1000 ppm, to the desired concentration. To produce a suitable preparation of a spore suspension the spores are diluted with emulsifier containing water to the desired concentration. Further test concentrations are prepared by dilution with emulsifier containing water.
Chinese cabbage (Brassica pekinensis) leaf disks are sprayed with a preparation of the active ingredient of the desired concentration. Once dry, the leaf disks are infested with mustard beetle larvae (Phaedon cochleariae).
After the specified period of time, mortality in % is determined. 100% means all beetle larvae have been killed and 0% means none of the beetle larvae have been killed. The mortality values determined thus are recalculated using the Colby-formula (see sheet 1).

[2] = tested on: two spotted spidermite (Tetranychus urticae); assay: Tetranychus urticae spray test OP-resistant (French bean leaf disks); conditions: for Efficacy in % after 2 d: mortality after 2 d
Source text: as §1, §2, §3
(§5) Solvent: 78.0 parts by weight acetone • 1.5 parts by weight dimethylformamide Emulsifier: alkylarylpolyglycol ether
as §4
French bean (Phaseolus vulgaris) leaf disks which are heavily infested with all stages of the two spotted spidermite (Tetranychus urticae), are sprayed with a preparation of the active ingredient of the desired concentration.
After the specified period of time, mortality in % is determined. 100% means all spider mites have been killed and 0% means none of the spider mites have been killed. The mortality values determined thus are recalculated using the Colby-formula (see sheet 1).

[3] = tested on: green peach aphid (Myzus persicae); assay: Myzus persicae spray test (Chinese cabbage leaf disks); conditions: for Efficacy in % after 1 d: mortality after 1 d; for Efficacy in % after 6 d: mortality after 6 d
Source text: as §1, §2, §3, §5, §4
Chinese cabbage (Brassica pekinensis) leaf disks infected with all instars of the green peach aphid (Myzus persicae), are sprayed with a preparation of the active ingredient of the desired concentration.
After the specified period of time, mortality in % is determined. 100% means all aphids have been killed; 0% means none of the aphids have been killed. The mortality values determined thus are recalculated using the Colby-formula (see sheet 1).

O=C(NC(=O)c1c(F)cccc1F)Nc1ccc(OC(F)(F)C(F)OC(F)(F)F)c(Cl)c1 (centres unmarked) [Novaluron]
Efficacy in % after 6 d ([1]; 100 g ai/ha): 0%

O=C(/N=c1\ccccn1Cc1ccc(Cl)nc1)C(F)(F)F [N-[(2E)-1-[(6-chloropyridin-3-yl)methyl]pyridin-2(1H)-ylidene]-2,2,2-trifluoroacetamide]
Efficacy in % after 6 d ([1]; 100 g ai/ha): 0%

O=C(NC(=O)c1c(F)cccc1F)Nc1cc(Cl)c(OC(F)(F)C(F)C(F)(F)F)cc1Cl (centres unmarked) [Lufenuron]
Efficacy in % after 2 d ([2]; 20 g ai/ha): 0%

CCOP(=S)(OCC)Oc1nc(Cl)c(Cl)cc1Cl [Chlorpyrifos]
Efficacy in % after 6 d ([2]; 4 g ai/ha, mortality after 6 d): 0%
Efficacy in % after 2 d ([2]; 20 g ai/ha): 0%

Lepimectin
Efficacy in % after 1 d ([3]; 4 g ai/ha): 0%
Efficacy in % after 6 d ([3]; 4 g ai/ha): 0%
Efficacy in % after 1 d ([3]; 20 g ai/ha): 0%
Efficacy in % after 6 d ([3]; 20 g ai/ha): 0%

Abamectin
Efficacy in % after 6 d ([1]; 0.8 g ai/ha): 0%

N#CCNC(=O)c1cnccc1C(F)(F)F [Flonicamid]
Efficacy in % after 2 d ([2]; 4 g ai/ha): 0%

O=C1C=C(N(Cc2ccc(Cl)nc2)CC(F)F)CO1 [Flupyradifurone]
Efficacy in % after 2 d ([2]; 0.8 g ai/ha): 0%
Efficacy in % after 2 d ([2]; 4 g ai/ha): 0%

Milbemectin
Efficacy in % after 6 d ([3]; 4 g ai/ha): 0%

From patent US20170071204A1, “ACTIVE COMPOUND COMBINATIONS HAVING IN[…]” (priority 2014, published 2017)
